Assay results reported in patent US12643899B2, “Antiviral agents, uses thereof and methods for their preparation” (The University of British Columbia, priority 2020, dated 2026).

How the values were obtained:
[1] = test system: ZIKV; assay: ZIKV viral dsRNA imaging (Cellomics ArrayScan VTI) in A549 cells; type: cell-based, Zika virus; details: 15 μM, 1 h pre-treatment, MOI 1, 48 h
[2] = test system: ZIKV; assay: Secreted NS1 (sNS1) ELISA, ZIKV-infected A549 cells; type: cell-based, Zika virus; details: Zika virus, 24 h pre-treatment, MOI 1.0, 2 d
Protocol: (§1) Error bars represent SD among 2 biological replicates.
(§2) Cultured A549 cells were treated with various concentrations of CA or PF-429242 for 24 h before being washed with PBS and inoculated with ZIKV (ZIKV strain VR 1843, Puerto Rico, 2015; ATCC) at MOI 1.0 for 1 h. Following the removal of the inoculum, cells were incubated in fresh media for 2 d before the supernatant was collected, clarified, and secreted NS1 protein abundance was measured by an ELISA kit (BioFront Technologies) according to the manufacturer's instructions. Curve fitting was performed in Igor Pro (WaveMetrics) using a hyperbolic fit algorithm (FIG. 4; upper and middle plots) and IC50 and TI values obtained. IC50 and TI values were also obtained for CA via plaque assay (PFU; FIG. 4, lower plot). FIG. 4 (upper plot) is an ED50 curve for the PF inhibitor based on the detection of secreted Non-Structural protein 1 (sNS1), secreted viral biomarker. sNS1 was detected using an Elisa test (commercially available). FIG. 4 (middle plot) is an ED50 curve for CA based on the detection of secreted Non-Structural protein 1 (sNS1), secreted viral biomarker. sNS1 was detected using an Elisa test (commercially available).

[3] = test system: DENV-2, DENV-3, DENV-4; assay: DENV-2, -3, -4 dsRNA imaging in Huh7.5.1 and U87 cells; type: cell-based, dengue virus; details: Huh 7.5.1 cells and U87 cells, FIG. 9
Protocol: Cultured Huh7.5.1 cells (left plots) or U87 cells (right plots) were treated with the indicated concentrations of CA (1=Mock, 2=0 M, 3=1 M, 4=5 M, 5=10 M, 6=20 µM) or PF-429242 (7=15 M) for 1 h before being washed with PBS and infected with DENV-2, DENV-3, or DENV-4 at MOI 1.0 for 48 h. Cells were labeled for viral dsRNA with […] then imaged and quantified using the Cellomics ArrayScan™ VTI.

[4] = test system: DENV-2; assay: DENV-2 intracellular dsRNA (Cellomics) in A549 cells; type: cell-based, dengue virus
Protocol: Error bars represent SD among 3 biological replicates. Cultured A549 cells were treated with the indicated concentrations of CA (1=Mock, 2=0 M, 3=1 μM, 4=5 M, 5=10 M, 6=20 µM) or PF-429242 (7=15 M) for 1 h before being washed with PBS and infected with DENV-2, DENV-3, or DENV-4 at MOI 1.0 for 48 h. Cells were labeled for viral dsRNA with […] then imaged and quantified using the Cellomics ArrayScan™ VTI High Content Screening system.
Viruses. ZIKV: ZIKV strain PRVABC59 (Puerto Rico/2015) (ATCC #VR-1843) was used in these studies, specifically three separate stocks generated in Vero E6 cells with titres of 1.35×10^8 pfu/mL, 1.0×10^7 pfu/mL, and 2.9×10^6 pfu/mL respectively. DENV strains: DENV-2 strain NGC, DENV-3 strain H-87, and DENV-4 strain H-241 were kindly provided by National Microbiology Laboratory, Winnipeg, MB, Canada.
A549 cells were seeded onto Corning tissue culture treated 96 well plates and incubated at 37 degrees Celsius and 5% CO2 for 24 h. CA was diluted in MEM complete media to concentrations of 1 μM, 5 μM, 10 μM, 20 μM, including a 0 μM condition. Diluted CA was added to each well and cells were incubated at 37 degrees Celsius and 5% CO2 for 1 h. After 1 h, cells were washed once with PBS to remove CA and were then infected with DENV-2, -3 or -4 at an MOI of 1. […] Labeled 96 well plates were imaged and quantified using the Cellomics ArrayScan VTI. […]

[5] = test system: ZIKV; assay: Plaque assay (PFU) dose response, ZIKV-infected A549 cells; type: cell-based; details: Zika virus
Protocol: as §1, §2
Bottom: ED50 curve for CA based on the detection of secreted infectious virus particles, as viral biomarker. Titer of the infectious virus particles (Plaque forming units) determined using plaque assays.

[6] = MTS cytotoxicity assay in U87 MG cells; type: cell-based; details: human, U87 MG cells (human brain)
Protocol: (§3) An MTS assay was performed to determine the cytotoxicity concentration 50% (CC50) of cladoniamide A (CA) in human A549 cells, a cell line from human lung carcinoma. Various concentrations of CA were added to cultured A549 cells and incubated (37° C., 5% CO2) for 48 h. Cell viability was then measured by an MTS assay kit (CellTiter 96™ Aqueous One Solution cell proliferation assay, Promega) according to the manufacturer's instructions. Curve fitting was performed in Igor Pro (WaveMetrics) using a hyperbolic fit algorithm (FIG. 1). The CC50 of CA in A549 cells was determined to be 54±5 μM. An MTS assay was also performed to determine the CC50 of CA in human U87 MG cells, a cell line from human brain. Various concentrations of CA were added to cultured U87 MG cells and incubated (37° C., 5% CO2) for 48 h. Cell viability was then measured by an MTS assay kit (CellTiter 96 Aqueous One Solution cell proliferation assay, Promega) according to the manufacturer's instructions. Curve fitting was performed in Igor Pro (WaveMetrics) using a hyperbolic fit algorithm (FIG. 2).

[7] = MTS cytotoxicity assay in A549 cells; type: cell-based, human; details: human, A549 cells (human lung carcinoma)
Protocol: as §3

SMILES: COc1c2n(c3ccccc13)[C@]1(O)C(=O)N(C)C(=O)[C@]1(O)c1c-2[nH]c2ccc(Cl)cc12 [CA, (11S,15R)-7-chloro-11,15-dihydroxy-23-methoxy-13-methyl-3,13,16-triazahexacyclo[14.7.0.0^2,10.0^4,9.0^11,15.0^17,22]tricosa-1(23),2(10),4(9),5,7,17,19,21-octaene-12,14-dione]
- activity against ZIKV (viral dsRNA) [1]: good activity
- IC50 [2]: 80 nM
- activity against Dengue virus 2, 3 and 4 [3]: broad-spectrum anti-flaviviral activity
- activity against Dengue virus 2 in vitro ([4]; 1-20 μM, FIG. 8 upper plots): good activity
- IC50 ([4]; Dengue virus, DENV2, DENV-2, intracellular dsRNA (Cellomics)): 2300 nM
- IC50 [5]: 110 nM
- CC50 at 48 h [6]: 42000 ± 12000 nM
- CC50 at 48 h [7]: 54000 ± 5000 nM
